Data: patent US20240246916A1, “7-NITRO-8-HYDROXYQUINOLINE DERIVATIVES, PREPARATION METHOD THEREFORE AND MEDICAL USE THEREOF” (Jiangsu Yahong Meditech Co., Ltd., priority 2021, published 2024)
Converted amounts (≈) assume the structure as drawn.

Key:
Type in all cases: cell-based
[1] = tested on: Acinetobacter baumannii (carbapenem-resistant clinical isolates; ATCC19606); test: MIC by micro broth dilution (CLSI), Acinetobacter baumannii; conditions: Acinetobacter baumannii; for MIC50 / MIC90: ATCC19606, Clinical strain; for MIC50: read-out: MIC50; for MIC90: read-out: MIC90; for MIC: Standard strain ATCC19606, read-out: MIC
Method in brief: (§1)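 Duplicate same-patient isolates are excluded and quality control strains are run alongside. Inoculum prepared by direct colony suspension to 0.5 McFarland then diluted 100-fold to reach 10^5 CFU/mL in CAMHB. Drug spans 128 to 0.06 mg/L; incubation lasts 20 hours at 35±2° C.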

[2] = tested on: Escherichia coli (carbapenem-resistant clinical isolate; ATCC25922); test: MIC by micro broth dilution (CLSI), Escherichia coli; conditions: Escherichia coli; for MIC50 / MIC90: ATCC25922, Clinical strain; for MIC50: read-out: MIC50; for MIC90: read-out: MIC90; for MIC: Standard strain ATCC25922, read-out: MIC
Method in brief: as §1

[3] = tested on: Staphylococcus aureus (methicillin-resistant and sensitive clinical isolates; ATCC29213); test: MIC by micro broth dilution (CLSI), Staphylococcus aureus; conditions: for MIC50 / MIC90: Clinical strain; for MIC50: read-out: MIC50; for MIC90: read-out: MIC90; for MIC: Standard strain ATCC29213, read-out: MIC
Method in brief: as §1

[4] = MIC by micro broth dilution (CLSI), Klebsiella pneumoniae; conditions: for MIC50 / MIC90: Standard strain
Excerpt: The test bacteria were one strain of clinically isolated carbapenem-resistant Escherichia coli, two strains of carbapenem-resistant Acinetobacter baumannii, two strains of methicillin-resistant Staphylococcus aureus, two strains of sensitive Staphylococcus aureus, and 7 strains of Klebsiella pneumoniae. Duplicate strains isolated from the same patient were eliminated. There were also […] quality control strains Escherichia coli ATCC25922, Acinetobacter baumannii ATCC19606, Staphylococcus aureus ATCC29213, Klebsiella pneumoniae ATCC BAA-1705, ATCC 43816, ATCC BAA-2472, ATCC-BAA-1898, ATCC-BAA-1899, NCTC 13440 and ATCC-BAA-2470. There were 24 strains in total.
According to the recommendations of relevant documents of the American Clinical and Laboratory Standards Institute (CLSI), the micro broth dilution method was used to determine the MIC of the compounds of the present invention against clinically isolated strains. • 3.1 Formulation of antibacterial drug: All the compounds of the present invention were dissolved in DMSO. The drug concentration range was 128 mg/L to 0.06 mg/L. • 3.2 Culture medium: The drug susceptibility test used cation adjusted Mueller-Hinton broth (CAMHB). • 3.3 Amount of inoculum: The test bacteria cultured overnight were adjusted to 0.5 McFarland turbidity by the direct colony suspension method, and diluted 100 folds, the final inoculum amount was 10^5 CFU/mL. • 3.4 Culture conditions: The test bacteria were cultured at 35±2° C. for 20 hours in air.
The drug susceptibility test results were interpretated by reference to CLSI 2019 M100 29th edition criteria.
The quality control strains of the drug susceptibility test were Escherichia coli ATCC 25922, Acinetobacter baumannii ATCC 19606, Staphylococcus aureus ATCC 29213, Klebsiella pneumoniae ATCC BAA-1705, ATCC 43816, ATCC BAA-2472, ATCC-BAA-1898, ATCC-BAA-1899, NCTC 13440 and ATCC-BAA-2470.
The results of drug susceptibility test were statistically analyzed by WHONET software (version 5.6).

[5] = tested on: Endothelial cell line HUVEC; test: Inhibitory activity on cells, CellTiter-Glo viability, HUVEC; conditions: Homo sapiens, 72 hours treatment
Method in brief: (§2)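 24 h attachment; HUVEC 2000, UM-UC-3/RM-1 3000, LNCaP 5000 cells/well. 8-pt 2.5× dilution from 100 μmol, 72 h, 37 °C/5% CO2. CellTiter-Glo; IC50 from curve fit; max = cells + DMSO vehicle, min = medium only.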

[6] = tested on: Mouse prostate cancer cell line RM1; test: Inhibitory activity on cancer cells, CellTiter-Glo viability, RM1; conditions: 72 hours treatment
Method in brief: as §2

[7] = tested on: Bladder cancer cell line UM-UC-3; test: Inhibitory activity on cancer cells, CellTiter-Glo viability, UM-UC-3; conditions: Homo sapiens, UMUC3, 72 hours treatment
Method in brief: as §2

[8] = tested on: Prostate cancer cell line LNcaP; test: Inhibitory activity on cancer cells, CellTiter-Glo viability, LNcaP; conditions: Homo sapiens, 72 hours treatment
Method in brief: as §2

Row | Structure (SMILES) | MIC50 [1] [µg/mL] | MIC90 [1] [µg/mL] | MIC50 [2] [µg/mL] | MIC90 [2] [µg/mL] | MIC50 [3] [µg/mL] | MIC90 [3] [µg/mL] | MIC50 [4] [µg/mL] | MIC90 [4] [µg/mL] | IC50 [5] [µM] | IC50 [6] [µM] | IC50 [7] [µM] | IC50 [8] [µM] | MIC [1] [µg/mL] | MIC [2] [µg/mL] | MIC ([4]; Standard strain ATCC43816) [µg/mL] | MIC [3] [µg/mL]
1 | Cc1ccc2ccc([N+](=O)[O-])c(O)c2n1 [Example 6, 2-Methyl-7-nitroquinolin-8-ol] | > 64 | > 64 | 64 (≈ 313 µM) | 64 (≈ 313 µM) | 64 (≈ 313 µM) | 64 (≈ 313 µM) | > 64 | > 64 | – | – | – | – | – | – | – | –
2 | Cc1cnc2c(O)c([N+](=O)[O-])ccc2c1 [Example 8, 3-Methyl-7-nitroquinolin-8-ol] | 8 (≈ 39.2 µM) | 16 (≈ 78.4 µM) | 4 (≈ 19.6 µM) | 4 (≈ 19.6 µM) | 8 (≈ 39.2 µM) | 8 (≈ 39.2 µM) | 32 (≈ 157 µM) | 32 (≈ 157 µM) | 5.7 | 3.18 | 3.77 | 9.3 | – | – | – | –
3 | Cc1ccnc2c(O)c([N+](=O)[O-])ccc12 [Example 10, 4-Methyl-7-nitroquinolin-8-ol] | 32 (≈ 157 µM) | 64 (≈ 313 µM) | 32 (≈ 157 µM) | 32 (≈ 157 µM) | 16 (≈ 78.4 µM) | 16 (≈ 78.4 µM) | > 64 | > 64 | – | – | – | – | – | – | – | –
4 | O=[N+]([O-])c1ccc2cccnc2c1O [Example 1, 7-Nitroquinolin-8-ol] | 4 (≈ 21 µM) | 8 (≈ 42.1 µM) | 16 (≈ 84.1 µM) | 16 (≈ 84.1 µM) | 4 (≈ 21 µM) | 4 (≈ 21 µM) | 16 (≈ 84.1 µM) | 64 (≈ 337 µM) | 14.9 | 8.13 | 9.33 | 10.9 | 16 (≈ 84.1 µM) | 8 (≈ 42.1 µM) | 8 (≈ 42.1 µM) | –
5 | O=[N+]([O-])c1ccc2ccc(F)nc2c1O [Example 5, 2-Fluoro-7-nitroquinolin-8-ol] | > 64 | > 64 | 32 (≈ 154 µM) | 32 (≈ 154 µM) | 64 (≈ 307 µM) | 64 (≈ 307 µM) | > 64 | > 64 | – | – | – | – | – | – | – | –
6 | N#Cc1cc([N+](=O)[O-])c(O)c2ncccc12 [Example 9, 8-Hydroxy-7-nitroquinoline-5-carbonitrile] | > 64 | > 64 | > 64 | > 64 | > 64 | > 64 | 64 (≈ 297 µM) | > 64 | – | – | – | – | – | – | – | –
7 | O=[N+]([O-])c1ccc2c(O)ccnc2c1O [Example 30, 7-Nitroquinoline-4,8-diol] | > 128 | > 128 | > 128 | > 128 | > 128 | > 128 | – | – | > 100 | > 100 | > 100 | > 100 | > 128 | > 128 | – | > 128
8 | O=[N+]([O-])c1cc(Cl)c2c(N3CCCCC3)ccnc2c1O [Example 36, 5-Chloro-7-nitro-4-piperidinylquinolin-8-ol] | > 128 | > 128 | > 128 | > 128 | 8 (≈ 26 µM) | 8 (≈ 26 µM) | – | – | 1.48 | 2.81 | 2.42 | 0.96 | > 128 | > 128 | – | 8 (≈ 26 µM)
